Experimental data as given in paper PMC4350406, “Mechanism of Action of 2-Aminobenzamide HDAC Inhibitors in Reversing Gene Silencing in Friedreich’s Ataxia” (Frontiers in Neurology, 2015).
Entries after “also recorded” stand apart in the source; their conditions may differ. Where two headings read alike, the source gives them in different places. One block for each compound: values may come before it.

Legend:
FXN mRNA [1] = tested on: FXN mRNA; design: method as in PMID 16921367; details: FRDA primary lymphocytes; cited from earlier work
FXN mRNA [2] = details: cited from earlier work; for effect on FXN gene expression: lymphoid cells
FXN mRNA [3] = experiment: qRT-PCR of FXN mRNA in FRDA iPSC-derived neurons treated with HDAC inhibitors; assay type: cell-based, human; details: for effect on FXN mRNA levels: 16-day-old FRDA neurons, 24 h, varying concentrations (Figure 2); for up-regulation of FXN mRNA: 10 μM for 24 h, data not shown
Method: (§1) All methods for iPSC derivation ([32]) and neuronal differentiation ([28], [33]) have been presented. […] Quantitative RT-PCR was performed as described ([28]), with the following primer pairs: • FXN: 5′-[…]-3′ and 5′-[…]-3′ • HDAC1: 5′-[…]-3′ and 5′-[…]-3′ • HDAC2: 5′-[…]-3′ and 5′-[…]-3′ • HDAC3: 5′-[…]-3′ and 5′-[…]-3′ • PCGF2: 5′-[…]-3′ and 5′-[…]-3′ • H2AFY2: 5′-[…]-3′ and 5′-[…]-3′
(§2) Data were normalized to RNA concentration and p values calculated using the t-test. Western blotting was performed as described ([28]), with antibodies to HDACs 1, 2, and 3 from Abcam (ab7028, ab7029, ab7030, respectively), used at a dilution of 1:5000. […] Protein concentrations were determined with the BCA assay (Thermo Scientific).

[4] = design: method as in PMID 27721337, PMID 22973455; details: in vivo, cited from earlier work
H2AFY2 mRNA = experiment: qRT-PCR of H2AFY2 mRNA in FRDA neuronal cells; assay type: cell-based, human; details: 24 h
Method: as §1, §2

[5] = cited from earlier work
PCGF2 mRNA = experiment: qRT-PCR of PCGF2 mRNA in FRDA neuronal cells; assay type: cell-based, human; details: 24 h
Method: as §1, §2

Recombinant human HDAC1 [6] = biological target: T1, Recombinant human HDAC1 (Homo sapiens, UniProt Q13547); experiment: HDAC1 deacetylase activity assay (acetyl-Lys(Ac)-AMC / Lys-C peptidase, progression curves)
T1 sequence (Q13547 whole entry): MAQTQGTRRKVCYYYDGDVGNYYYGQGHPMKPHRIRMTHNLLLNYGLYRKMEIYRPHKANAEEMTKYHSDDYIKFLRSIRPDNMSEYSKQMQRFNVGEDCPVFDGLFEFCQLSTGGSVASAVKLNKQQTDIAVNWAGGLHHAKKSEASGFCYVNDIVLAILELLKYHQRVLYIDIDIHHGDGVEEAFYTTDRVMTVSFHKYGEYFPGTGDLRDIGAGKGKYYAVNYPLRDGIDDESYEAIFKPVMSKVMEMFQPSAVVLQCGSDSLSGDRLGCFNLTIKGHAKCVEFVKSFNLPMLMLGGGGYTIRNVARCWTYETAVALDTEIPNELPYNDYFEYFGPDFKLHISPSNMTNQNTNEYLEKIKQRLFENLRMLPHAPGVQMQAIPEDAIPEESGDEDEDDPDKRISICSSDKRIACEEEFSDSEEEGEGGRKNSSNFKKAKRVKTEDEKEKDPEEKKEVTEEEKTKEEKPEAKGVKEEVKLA

Recombinant human HDAC1 [7] = biological target: T1, Recombinant human HDAC1; details: cited from earlier work
[8] = biological target: T2, Recombinant human HDAC3/NCoR2 (Homo sapiens, UniProt O15379); details: cited from earlier work
T2 sequence (O15379 whole entry): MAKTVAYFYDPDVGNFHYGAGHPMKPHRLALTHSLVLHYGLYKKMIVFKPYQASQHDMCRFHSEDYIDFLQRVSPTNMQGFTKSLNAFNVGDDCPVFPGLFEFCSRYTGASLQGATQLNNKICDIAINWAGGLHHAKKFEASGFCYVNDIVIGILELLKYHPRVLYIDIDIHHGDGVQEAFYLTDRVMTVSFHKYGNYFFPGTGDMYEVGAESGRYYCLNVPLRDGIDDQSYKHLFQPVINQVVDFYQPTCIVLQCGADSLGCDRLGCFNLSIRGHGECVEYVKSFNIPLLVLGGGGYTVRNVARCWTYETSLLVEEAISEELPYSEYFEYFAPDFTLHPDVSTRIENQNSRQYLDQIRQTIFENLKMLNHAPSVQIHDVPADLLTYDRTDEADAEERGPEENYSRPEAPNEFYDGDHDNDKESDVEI
T2 sequence (Q9Y618 395-489 partner limits assumed): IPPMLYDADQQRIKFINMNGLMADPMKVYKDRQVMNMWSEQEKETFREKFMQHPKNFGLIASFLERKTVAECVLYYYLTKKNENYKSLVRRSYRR

[9] = biological target: T2, Recombinant human HDAC3/NCoR2; experiment: HDAC3/NCoR2 deacetylase activity assay (acetyl-Lys(Ac)-AMC / Lys-C peptidase, progression curves)
FXN mRNA [10] = tested on: FXN mRNA; design: method as in PMID 25159818; details: cited from earlier work
HDAC = tested on: HDAC; design: method as in PMID 16921367, PMID 18953021; details: cited from earlier work
[11] = design: method as in PMID 25159818; details: preclinical studies; cited from earlier work
FXN mRNA [12] = tested on: FXN mRNA; design: method as in PMID 12516053; details: cited from earlier work
[13] = fit of kobs versus inhibitor concentration
[14] = progression curves, mechanism 2
[15] = progression curves, mechanism 1

Structure (SMILES): Nc1ccccc1NC(=O)CCCCCC(=O)Nc1ccccc1 [4b, N^1-(2-aminophenyl)-N^7-phenylheptanediamide]
FXN mRNA levels (FXN mRNA [1]): significantly increase FXN mRNA levels

Structure (SMILES): Nc1ccccc1NC(=O)CCCCCCC(=O)Nc1ccccc1 [BML-210, N^1-(2-aminophenyl)-N^8-phenyloctanediamide]
FXN mRNA expression (FXN mRNA [2]; FRDA lymphoblasts): significant increase

Structure (SMILES): Nc1ccccc1NC(=O)/C=C/c1cn(C/C=C/c2ccccc2)nn1 [Click-1]
FXN mRNA increase compared with HDACi 109 (FXN mRNA [3]; FRDA neuronal cells, varying concentrations (Figure 6B)): equivalent activities; also recorded: no loss of activity
metabolic conversion / benzimidazole formation [4]: stability to benzimidazole formation
H2AFY2 mRNA level (H2AFY2 mRNA; 5 μM (lower concentrations)): significantly down-regulate
brain/plasma ratio [5]: > 0.7
PCGF2 mRNA level (PCGF2 mRNA; 5 μM (lower concentrations)): significantly down-regulate

inhibition mechanism HDAC1 (Recombinant human HDAC1 [6]; [13]): slow-on/slow-off inhibition mechanism 2
preference for HDAC1 over HDAC3 comparing IC50 values (Recombinant human HDAC1 [6]; from Table 1 values): ~ 75 fold
preference for HDAC1 over HDAC3 from Ki measurements (Recombinant human HDAC1 [6]; from Table 1 values): ~ 350 fold
k2 HDAC1 (Recombinant human HDAC1 [6]; [14]): k2 = 0.1675 min^−1
k−2 HDAC1 (Recombinant human HDAC1 [6]; [14]): k−2 = 0.0017 min^−1
inhibition mechanism HDAC3 [9, 13]: mechanism 1
k1 HDAC3 [9, 15]: k1 = 600 min^-1 M^−1
k−1 HDAC3 [9, 15]: k−1 = 0.0015 min^−1
Selectivity HDAC3 (from IC50) ([9]; ratio of IC50 HDAC1 to IC50 HDAC3, from data of refs 25, 26): 0.013
Structure (SMILES): Nc1ccc(-c2ccccc2)cc1NC(=O)CCCCCC(=O)Nc1ccccc1 [HDACi 3, N^1-(4-aminobiphenyl-3-yl)-N^7-phenylheptanediamide]
effect on FXN mRNA levels (FXN mRNA [3]): no effect; also recorded: weakly active
IC50 (Recombinant human HDAC1 [7]): 127 nM
IC50 [8]: 9.6 µM

Structure (SMILES): Cc1ccc(NC(=O)CCCCCC(=O)Nc2ccccc2N)cc1 [HDACi 106]
metabolic conversion / benzimidazole formation [4]: conversion of the active molecule into an inactive metabolic product
inhibition mechanism HDAC1 (Recombinant human HDAC1 [7]): slow-on/slow-off inhibitor

Structure (SMILES): Cc1ccc(C(=O)NCCCCCC(=O)Nc2ccccc2N)cc1 [HDACi 109, N-(6-(2-aminophenylamino)-6-oxohexyl)-4-methylbenzamide]
metabolic conversion / benzimidazole formation [4]: conversion of the active molecule into an inactive metabolic product
metabolic conversion / benzimidazole formation ([4]; listed as 109/RG2833): conversion of the active molecule into inactive, potentially toxic metabolic products

Structure (SMILES): Cc1ccc(C(=O)NCCCCCC(=O)Nc2ccc(F)cc2N)cc1 [HDACi 136, N-(6-(2-amino-4-fluorophenylamino)-6-oxohexyl)-4-methylbenzamide]
effect on FXN mRNA levels (FXN mRNA [3]): only a modest effect; also recorded: inactive
H2AFY2 mRNA level (H2AFY2 mRNA; 5 μM (lower concentrations)): inactive at lower concentrations
H2AFY2 mRNA level (H2AFY2 mRNA; 10 μM): moderately active
PCGF2 mRNA level (PCGF2 mRNA; 5 μM (lower concentrations)): inactive at lower concentrations
PCGF2 mRNA level (PCGF2 mRNA; 10 μM): moderately active

Structure (SMILES): Nc1ccc(-c2cccs2)cc1NC(=O)CCCCCCNC(=O)c1cccnc1 [HDACi 233, N-(2-amino-5-(2-thienyl)phenyl)-7-nicotinoylamino-heptanamide]
induction of FXN gene expression in FRDA neuronal cells (FXN mRNA [10]): weakly active
up-regulation of FXN mRNA (FXN mRNA [3]; FRDA neuronal cells): did not
selectivity for HDAC1 over HDAC3 (Recombinant human HDAC1 [7]): > 200 fold

Structure (SMILES): Nc1cc(F)ccc1NC(=O)/C=C/c1cnn(CC=Cc2ccccc2)c1 [HDACi 966, (E)-N-(2-amino-4-fluorophenyl)-3-(1-cinnamyl-1H-pyrazol-4-yl)acrylamide]
induction of FXN gene expression in FRDA neuronal cells (FXN mRNA [10]): inactive
up-regulation of FXN mRNA (FXN mRNA [3]; FRDA neuronal cells): did not
selectivity for HDAC3 over HDAC1/2 [8]: ~ 30 fold

Structure (SMILES): O=C(CCCCCCC(=O)Nc1ccccc1)NO [SAHA]
effect on FXN gene expression (FXN mRNA [2]): without effect on FXN gene expression

Structure (SMILES): CC(/C=C/C(=O)NO)=C\[C@@H](C)C(=O)c1ccc(N(C)C)cc1 [TSA]
inhibition mechanism (HDAC): rapid-on/rapid-off inhibitors
effect on FXN gene expression (FXN mRNA [2]): without effect on FXN gene expression

Structure (SMILES): c1ccc2[nH]cnc2c1 [benzimidazole]
risk category for inducing QTc prolongation [11]: high-risk category

Structure (SMILES): NC(=O)c1cccnc1 [nicotinamide]
FXN mRNA levels (FXN mRNA [2]; FRDA lymphoblasts): increases FXN mRNA levels

Structure (SMILES): CCCC(=O)[O-].[Na+] [sodium butyrate]
ability to increase FXN mRNA expression (FXN mRNA [12]): only a modest effect
